GI50 and TGI data for seven compounds are collected here from PubChem BioAssay (NCI).

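Grown in 96-well plates, cells were treated for 48 hours with each compound at five concentrations. Insufficient inhibition: endpoint recorded as highest concentration tested. At the GI50, growth is halved. TGI: concentration producing complete growth inhibition.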

Some test systems named below: MDA-MB-435; HOP-62 NSCLC; SNB-19 CNS; SW-620 colon; COLO 205 colon; PC-3 prostate; SK-OV-3 ovarian; SN12C renal; CCRF-CEM leukemia; NCI-H226 lung.
Common to all, as to experiment: growth of human tumour cells (NCI), 48 h

On to `Clc1c(Cl)[n+](Cc2ccc3ccccc3c2)cn1Cc1ccc2ccccc2c1`, for which the GI50 is 1.24 µM with MDA-MB-435; 1.26 µM with HOP-62 NSCLC; 1.32 µM with SNB-19 CNS; 1.47 µM in the assay on SW-620 colon; 1.13 µM with COLO 205 colon; 1.46 µM in the assay with PC-3 prostate. Besides, the GI50 with SK-OV-3 ovarian was 1.39 µM; in the assay with SN12C renal, 1.53 µM; with CCRF-CEM leukemia it was 2.89 µM. The TGI stood at 2.64 µM with MDA-MB-435; 2.61 µM in the assay on HOP-62 NSCLC; 2.7 µM with SNB-19 CNS; 3 µM with SW-620 colon; 2.57 µM in the assay on COLO 205 colon; 2.87 µM in the assay with PC-3 prostate. Further, the values for the TGI in the assay with SK-OV-3 ovarian, in the assay on SN12C renal and with CCRF-CEM leukemia were 3.75 µM, 2.99 µM and 7.06 µM, respectively.

Regarding `CCCCCCCCCCCCCCCC1=NCC[N+]1(CCO)CCO`, the GI50 is 2.1 µM with MDA-MB-435; 1.71 µM in the assay with HOP-62 NSCLC; 3.8 µM in the assay on SNB-19 CNS; 1.76 µM with SW-620 colon; 1.87 µM in the assay with COLO 205 colon; 1.42 µM in the assay on PC-3 prostate. The GI50 is 4.3 µM in the assay with SK-OV-3 ovarian, 1.85 µM in the assay on SN12C renal and 3.17 µM with NCI-H226 lung. For the same compound, the TGI worked out at 4.4 µM in the assay with MDA-MB-435; 3.23 µM in the assay with HOP-62 NSCLC; 15.9 µM in the assay on SNB-19 CNS; 3.54 µM with SW-620 colon; 3.68 µM with COLO 205 colon; 3.3 µM in the assay with PC-3 prostate. For the same compound, the TGI was found to be 15.9 µM in the assay on SK-OV-3 ovarian, 3.92 µM with SN12C renal and 12.3 µM with NCI-H226 lung.

On to `NS(=O)(=O)OC[C@H]1C[C@@H](Nc2ccnc3cc(-c4cccc(SC(F)(F)F)c4)nn23)[C@H](O)[C@@H]1O`, for which the GI50 with MDA-MB-435 is 0.035 µM; with HOP-62 NSCLC it was 0.0173 µM; in the assay with SNB-19 CNS it was 0.0301 µM; with SW-620 colon, 0.0422 µM; in the assay with COLO 205 colon, 0.0229 µM; in the assay on PC-3 prostate, 0.0378 µM. Further, the GI50 in the assay on SK-OV-3 ovarian is 0.0271 µM; with SN12C renal, 0.0462 µM; with CCRF-CEM leukemia, under 0.0181 µM. For the same compound, the TGI in the assay on MDA-MB-435 stood at 0.144 µM; in the assay with HOP-62 NSCLC, 0.0489 µM; in the assay with SNB-19 CNS it was 0.0902 µM; in the assay on SW-620 colon, 1.37 µM; in the assay on COLO 205 colon, 0.0525 µM; in the assay with PC-3 prostate, 0.367 µM. For the same compound, the TGI with SK-OV-3 ovarian was determined as 0.0769 µM; in the assay with SN12C renal it was 0.319 µM; with CCRF-CEM leukemia it was 13.2 µM.

As to `Cc1nc([N+](=O)[O-])cn1-c1nc2ccccn2c1[N+](=O)[O-]`, the TGI in the assay on MDA-MB-435, in the assay with HOP-62 NSCLC, in the assay with SNB-19 CNS, with SW-620 colon, in the assay with COLO 205 colon and in the assay with PC-3 prostate was over 100 µM each time. Besides, the TGI with SK-OV-3 ovarian, with SN12C renal and with NCI-H226 lung was over 100 µM throughout.

For the compound `Cc1c(C)n(CCCN2CCN(C)CC2)c2ccc(Oc3cccc(C(=O)N4CCN(CCc5ccc(F)cc5)CC4)c3)cc12`, the GI50 with MDA-MB-435 is 1.78 µM; in the assay with HOP-62 NSCLC, 1.63 µM; in the assay with SNB-19 CNS, 1.75 µM; in the assay on SW-620 colon it was 1.77 µM; with COLO 205 colon, 1.97 µM; with PC-3 prostate, 1.06 µM. The GI50 in the assay with SK-OV-3 ovarian is 1.91 µM; in the assay on SN12C renal, 1.54 µM. The TGI in the assay on MDA-MB-435 turned out to be 3.33 µM; in the assay with HOP-62 NSCLC, 3.34 µM; with SNB-19 CNS, 3.31 µM; in the assay on SW-620 colon it was 3.28 µM; in the assay on COLO 205 colon, 3.8 µM; in the assay with PC-3 prostate, 2.61 µM. Also, the figures for the TGI in the assay on SK-OV-3 ovarian and in the assay on SN12C renal were 3.62 µM and 3.09 µM, respectively.

For `Cc1cnc2n1S(=O)(=O)c1cc(C(=O)Nc3cccc4nsnc34)c(Cl)cc1S2`, the GI50 in the assay on MDA-MB-435 is 22.4 µM; with HOP-62 NSCLC it was 20.1 µM; in the assay on SNB-19 CNS it was 27.2 µM; in the assay on SW-620 colon, 19.1 µM; in the assay with COLO 205 colon it was 23 µM; in the assay on PC-3 prostate it was 20.1 µM. Besides, the figures for the GI50 in the assay with SK-OV-3 ovarian, with SN12C renal and in the assay with NCI-H226 lung were over 100 µM, 25.3 µM and 17.3 µM, respectively. Further, the TGI in the assay on MDA-MB-435 turned out to be 56.5 µM; in the assay on HOP-62 NSCLC it was 35.8 µM; in the assay with SNB-19 CNS it was 60.8 µM; in the assay with SW-620 colon it was 37.2 µM; in the assay on COLO 205 colon, 54.6 µM; with PC-3 prostate, 38.9 µM. Also, the TGI in the assay on SK-OV-3 ovarian was over 100 µM; in the assay with SN12C renal it was 58.5 µM; in the assay on NCI-H226 lung, 34.2 µM.

`O=C(NCCCCN1CCOCC1)c1cc2ccccc2o1`: the GI50 in the assay on MDA-MB-435, in the assay with HOP-62 NSCLC, in the assay on SNB-19 CNS, in the assay with SW-620 colon, in the assay with COLO 205 colon and with PC-3 prostate was over 100 µM throughout. Also, the GI50 in the assay with SK-OV-3 ovarian, in the assay on SN12C renal and in the assay on NCI-H226 lung was over 100 µM in each case. The TGI in the assay on MDA-MB-435, with HOP-62 NSCLC, in the assay with SNB-19 CNS, with SW-620 colon, in the assay with COLO 205 colon and in the assay with PC-3 prostate was over 100 µM each time. The TGI in the assay on SK-OV-3 ovarian, in the assay on SN12C renal and in the assay on NCI-H226 lung was over 100 µM each time.
